Laboratory results from patent US9890133B2 (priority 2011, dated 2018).
≈ marks a conversion by molar mass, not a printed value. Like-named read-outs stand apart in the source and are kept apart here.

Tests used:
[1] = in vitro; conditions: human
[2] = tested on: Poliovirus 3; assay: microbe, parasite or virus in culture; type: cell-based; conditions: Enterovirus C

CCc1ccc2c(c1)OC1(O)c3cccc(N)c3C(=O)C21O (stereo not shown) [Example 50, 1-Amino-7-ethyl-4b,9b-dihydroxy-4b,9b-dihydro-5-oxa-indeno[2,1-a]inden-10-one]
melting point: 200 to 203 °C | CC50 [1]: 49.9 µg/mL (≈ 168 µM) | EC50 ([2]; HeLa37, 48 h, read-out: Poliovirus 3 EC50): < 0.1 µg/mL | EC50 ([2]; read-out: Poliovirus3 EC50): < 0.1 µg/mL

CC(=O)Nc1cccc2c1C(=O)C1(O)c3ccc(C(C)C)cc3OC21O (stereo not shown) [Example 48, N-(4b,9b-Dihydroxy-7-isopropyl-10-oxo-9b,10-dihydro-4bH-benzo[d]indeno[1,2-b]furan-1-yl)acetamide]
melting point: 152 to 154 °C | CC50 ([1]; Picorana CC50): 35 µg/mL (≈ 99.1 µM)

COc1ccc2c(c1)C(=O)C1(O)c3ccc(C(C)C)cc3OC21O (stereo not shown) [Example 32, 4b,9b-Dihydroxy-7-isopropyl-2-methoxy-4b,9b-dihydro-5-oxa-indeno[2,1-a]inden-10-one]
melting point: 98 to 102 °C | CC50 ([1]; Picorana CC50): 8.1 µg/mL (≈ 24.8 µM)

CCc1ccc2c(c1)OC1(O)c3ccccc3C(=O)C21O (stereo not shown) [Example 9, 7-Ethyl-4b,9b-dihydroxy-4bH-benzo[d]indeno[1,2-b]furan-10(9bH)-one]
melting point: 168 to 169 °C | CC50 ([1]; Picorana CC50): 18 µg/mL (≈ 63.8 µM)

COC(=O)O[C@@]12Oc3cc(C(C)C)ccc3[C@]1(OC(=O)OC)C(=O)c1c(N)cccc12 [Example 51]
melting point: 110 to 120 °C | CC50 ([1]; Picorana CC50): 17.5 µg/mL (≈ 40.9 µM)

O=C1c2ccccc2C2(O)Oc3c(ccc(Cl)c3Cl)C12O (stereo not shown) [Example 8, 6,7-Dichloro-4b,9b-dihydroxy-4bH-benzo[d]indeno[1,2-b]furan-10(9bH)-one]
melting point: 142 to 150 °C | CC50 ([1]; Picorana CC50): 44.1 µg/mL (≈ 136 µM)

COc1ccc2c(c1)C1(O)C(=O)c3ccccc3C1(O)O2 (stereo not shown) [Example 12, 4b,9b-Dihydroxy-8-methoxy-4bH-benzo[d]indeno[1,2-b]furan-10(9bH)-one]
melting point: 186 to 189 °C | CC50 ([1]; Picorana CC50): > 50 µg/mL

O=C1c2ccccc2C2(O)Oc3c(ccc4c3CCCC4)C12O (stereo not shown) [Example 31, 6b,11b-Dihydroxy-1,2,3,4,6b,11b-hexahydro-12-oxa-benzo[4,5]pentaleno[2,1-a]naphthalen-7-one]
melting point: 252 to 254 °C | CC50 ([1]; Picorana CC50): 8.9 µg/mL (≈ 28.9 µM)

CC(C)(C)c1cc(C(C)(C)C)c2c(c1)C1(O)C(=O)c3ccccc3C1(O)O2 (stereo not shown) [Example 24, 6,8-di-tert-Butyl-4b,9b-dihydroxy-4bH-benzo[d]indeno[1,2-b]furan-10(9bH)-one]
melting point: 200 to 203 °C | CC50 ([1]; Picorana CC50): 8.8 µg/mL (≈ 24 µM)

CC(C)c1ccc2c(c1)OC1(OC(=O)C(C)(C)C)c3ccccc3C(=O)C21OC(=O)C(C)(C)C (stereo not shown) [Example 33, 7-Isopropyl-10-oxo-9b,10-dihydro-4bH-benzo[d]indeno[1,2-b]furan-4b,9b-diyl bis(2,2-dimethylpropanoate)]
melting point: 153 to 157 °C | CC50 ([1]; Picorana CC50): > 50 µg/mL

CC(C)c1ccc2c(c1)OC1(O)c3c(N)ccc(N)c3C(=O)C21O (stereo not shown) [Example 61, 1,4-diamino-4b,9b-dihydroxy-7-isopropyl-4bH-benzo[d]indeno[1,2-b]furan-10(9bH)-one]
melting point: 223 to 231 °C | CC50 ([1]; Picorana CC50): > 50 µg/mL

CC(C)NC(=O)Nc1cccc2c1C(=O)C1(O)c3ccc(C(C)C)cc3OC21O (stereo not shown) [Example 55]
melting point: 81 to 85 °C | CC50 ([1]; Picorana CC50): 7.49 µg/mL (≈ 18.9 µM)

COc1cc2c(cc1OC)[C@]1(O)Oc3cc(C(C)C)ccc3[C@]1(O)C2=O [Example 81, 4b,9b-Dihydroxy-7-isopropyl-2,3-dimethoxy-4bH-benzo[d]indeno[1,2-b]furan-10(9bH)-one]
melting point: 127 to 129 °C | CC50 ([1]; Picorana CC50): 8.61 µg/mL (≈ 24.2 µM)

Cc1cc2c(c(C)c1C)C1(O)C(=O)c3ccccc3C1(O)O2 (stereo not shown) [Example 22, 4b,9b-Dihydroxy-7,8,9-trimethyl-4bH-benzo[d]indeno[1,2-b]furan-10(9bH)-one]
melting point: 212 to 214 °C | CC50 ([1]; Picorana CC50): 8.01 µg/mL (≈ 27 µM)

CC(=O)OC12Oc3cc(C(C)C)ccc3C1(OC(C)=O)C(=O)c1c([N+](=O)[O-])cccc12 (stereo not shown) [Example 53]
melting point: 201 to 203 °C | CC50 ([1]; Picorana CC50): 45.6 µg/mL (≈ 107 µM)

COC(=O)N[C@@]12C(=O)c3ccccc3[C@]1(O)Oc1cc(C(C)C)ccc12 [Example 84, Methyl (4bS,9bS)-4b-hydroxy-7-isopropyl-10-oxo-9b,10-dihydro-4bH-benzo[d]indeno[1,2-b]furan-9b-ylcarbamate]
melting point: 161 to 163 °C | CC50 ([1]; Picorana CC50): > 50 µg/mL

CCCCCCCCCc1ccc2c(c1)C1(O)C(=O)c3ccccc3C1(O)O2 (stereo not shown) [Example 26, 4b,9b-Dihydroxy-8-nonyl-4bH-benzo[d]indeno[1,2-b]furan-10(9bH)-one]
melting point: 108 to 110 °C | CC50 ([1]; Picorana CC50): < 4 µg/mL

CC(C)c1ccc2c(c1)OC1(O)c3ccc(N)c(N)c3C(=O)C21O (stereo not shown) [Example 62, 1,2-Diamino-4b,9b-dihydroxy-7-isopropyl-4bH-indeno[1,2-b]benzofuran-10(9bH)-one]
melting point: 163 to 166 °C | CC50 ([1]; Picorana CC50): > 50 µg/mL

CC(C)c1ccc2c(c1)O[C@@]1(O)c3cccc(O)c3C(=O)[C@@]21O [Example 43, 1,4b,9b-Trihydroxy-7-isopropyl-4bH-benzo[d]indeno[1,2-b]furan-10(9bH)-one]
melting point: 205 to 207 °C | CC50 [1]: 33.2 µg/mL (≈ 106 µM)

CCOC(=O)OC12Oc3cc(C(C)C)ccc3C1(O)C(=O)c1ccccc12 (stereo not shown) [Example 38, Ethyl 9b-hydroxy-7-isopropyl-10-oxo-9b,10-dihydro-4bH-benzo[d]indeno[1,2-b]furan-4b-yl carbonate]
melting point: 144 to 147 °C | CC50 ([1]; Picorana CC50): 9.5 µg/mL (≈ 25.8 µM)

CC(=O)OC12Oc3cc(C(C)C)ccc3C1(OC(C)=O)C(=O)c1ccccc12 (stereo not shown) [Example 11, 7-Isopropyl-10-oxo-9b,10-dihydro-4bH-benzo[d]indeno[1,2-b]furane-4b,9b-diyl diacetate]
melting point: 138 to 140 °C | CC50 ([1]; Picorana CC50): 16.2 µg/mL

CC(=O)OC12Oc3cc(C)ccc3C1(OC(C)=O)C(=O)c1ccccc12 (stereo not shown) [Example 2, 7-Methyl-10-oxo-9b,10-dihydro-4bH-benzo[d]indeno[1,2-b]furane-4b,9b-diyl diacetate]
melting point: 167 to 169 °C | CC50 ([1]; Picorana CC50): > 50 µg/mL

CCOC(=O)Cc1cc(OC)c2c(c1)C1(O)C(=O)c3ccccc3C1(O)O2 (stereo not shown) [Example 3, Ethyl 2-(4b,9b-dihydroxy-6-methoxy-10-oxo-9b,10-dihydro-4bH-benzo[d]indeno[1,2-b]furane-8-yl)acetate]
melting point: 133 to 136 °C | CC50 ([1]; Picorana CC50): > 50 µg/mL

CC(C)(C)c1cccc2c1OC1(O)c3ccccc3C(=O)C21O (stereo not shown) [Example 21, 6-tert-Butyl-4b,9b-dihydroxy-4bH-benzo[d]indeno[1,2-b]furan-10(9bH)-one]
melting point: 148 to 152 °C | CC50 ([1]; Picorana CC50): 32.1 µg/mL (≈ 103 µM)

Cc1cc2c(cc1C)C1(O)C(=O)c3ccccc3C1(O)O2 (stereo not shown) [Example 4, 4b,9b-dihydroxy-7,8-dimethyl-4bH-benzo[d]indeno[1,2-b]furan-10(9bH)-one]
melting point: 198 to 200 °C | CC50 ([1]; Picorana CC50): > 50 µg/mL

CC(=O)Nc1cccc2c1C(=O)[C@@]1(NC(C)=O)c3ccc(C(C)C)cc3O[C@@]21O [Example 87, N,N′-((4bS,9bS)-4b-Hydroxy-7-isopropyl-10-oxo-9b,10-dihydro-4bH-benzo[d]indeno[1,2-b]furane-1,9b-diyl)diacetamide]
melting point: 205 to 207 °C | CC50 ([1]; Picorana CC50): 36.8 µg/mL (≈ 93.2 µM)

CC(=O)Nc1cccc2c1C(=O)C1(N)c3ccc(C(C)C)cc3OC21O (stereo not shown) [Example 56]
melting point: 152 to 156 °C | CC50 ([1]; Picorana CC50): 42.2 µg/mL (≈ 120 µM)

CC(=O)Nc1cccc2c1C(=O)C1(NC(C)=O)c3ccc(C(C)C)cc3OC21O (stereo not shown) [Example 57, N,N′-(4b-Hydroxy-7-isopropyl-10-oxo-9b,10-dihydro-4bH-benzo[d]indeno[1,2-b]furane-1,9b-diyl)diacetamide]
melting point: 189 to 191 °C | CC50 ([1]; Picorana CC50): 46.7 µg/mL (≈ 118 µM)

Cc1cc2c(cc1C)C1(O)Oc3cc(C(C)C)ccc3C1(O)C2=O (stereo not shown) [Example 82, 4b,9b-dihydroxy-7-isopropyl-2,3-dimethyl-4bH-benzo[d]indeno[1,2-b]furan-10(9bH)-one]
melting point: 138 to 140 °C | CC50 ([1]; Picorana CC50): 1.9 µg/mL (≈ 5.86 µM)

COC(=O)Nc1cccc2c1C(=O)C1(O)c3ccc(C(C)C)cc3OC21O (stereo not shown) [Example 49, Methyl 4b,9b-dihydroxy-7-isopropyl-10-oxo-9b,10-dihydro-4bH-benzo[d]indeno[1,2-b]furan-1-ylcarbamate]
melting point: 96 to 99 °C | CC50 ([1]; Picorana CC50): 9.18 µg/mL (≈ 24.9 µM)

CC(C)c1ccc2c(c1)O[C@@]1(O)c3cc4ccccc4cc3C(=O)[C@@]21O [Example 44, 4b,9b-Dihydroxy-7-isopropyl-1H-cyclopenta[b]naphthalene o[1,2-b]furan-10(9bH)-one]
melting point: 186 to 189 °C | CC50 ([1]; Picorana CC50): 6.25 µg/mL (≈ 18 µM)

CCC(C)(C)c1ccc2c(c1)C1(O)C(=O)c3ccccc3C1(O)O2 (stereo not shown) [Example 23, 4b,9b-Dihydroxy-8-tert-pentyl-4bH-benzo[d]indeno[1,2-b]furan-10(9bH)-one]
melting point: 175 to 176 °C | CC50 ([1]; Picorana CC50): 9.3 µg/mL (≈ 28.7 µM)

CC(C)c1ccc2c(c1)OC1(O)c3cc(F)c(F)cc3C(=O)C21O (stereo not shown) [Example 42, 2,3-Difluoro-4b,9b-dihydroxy-7-isopropyl-4bH-benzo[d]indeno[1,2-b]furan-10(9bH)-one]
melting point: 134 to 136 °C | CC50 ([1]; Picorana CC50): 8.94 µg/mL (≈ 26.9 µM)

CC(C)(C)c1ccc2c(c1)C1(O)C(=O)c3ccccc3C1(O)O2 (stereo not shown) [Example 20, 8-tert-Butyl-4b,9b-dihydroxy-4bH-benzo[d]indeno[1,2-b]furan-10(9bH)-one]
melting point: 187 to 188 °C | CC50 ([1]; Picorana CC50): 7.93 µg/mL (≈ 25.6 µM)

O=C1c2ccccc2C2(O)Oc3c(ccc4ccccc34)C12O (stereo not shown) [Example 16, 6b,11b-Dihydroxy-6bH-indeno[1,2-b]naphtho[2,1-d]furan-7(11 bH)-one]
melting point: 216 to 218 °C | CC50 ([1]; Picorana CC50): 7.82 µg/mL (≈ 25.7 µM)

CC(C)OC(=O)Nc1cccc2c1C(=O)C1(O)c3ccc(C(C)C)cc3OC21O (stereo not shown) [Example 29, Isopropyl 4b,9b-dihydroxy-7-isopropyl-10-oxo-9b,10-dihydro-4bH-benzo[d]indeno[1,2-b]furan-1-ylcarbamate]
melting point: 200 to 202 °C | CC50 ([1]; Picorana CC50): 7.49 µg/mL (≈ 18.8 µM)

CCCc1ccc2c(c1)C1(O)C(=O)c3ccccc3C1(O)O2 (stereo not shown) [Example 17, 4b,9b-Dihydroxy-8-propyl-4bH-benzo[d]indeno[1,2-b]furan-10(9bH)-one]
melting point: 126 to 127 °C | CC50 ([1]; Picorana CC50): 7.85 µg/mL (≈ 26.5 µM)
